Assay results reported in patent publication US10335488B2, “Method for treating cancer by photodynamic therapy” (D. R. NANO CO., LTD., priority 2014, dated 2019).

Tests used:
[1] = tested on: cancer cells MDA-MB-231, MCF-7, PC-3, HeLa, HT-29; normal cells MRC-5, clone 1-5c-4, NIH/3T3; experiment: Accumulation in cells by fluorescence microscopy; assay type: cell-based, human; mouse (NIH/3T3); conditions: 1 hour incubation, fluorescence microscope
Protocol: In order to determine if the nanoparticles (MB NPs) prepared in Example 1 would be accumulated in the cancer cell, 1×10^5 of each of cancer cells MDA-MB-231 (breast, mammary gland/human, Korean Cell Line Bank), MCF-7 (breast, mammary gland/human, Korean Cell Line Bank), PC-3 (prostate; grade 4; metastasis to bone/human, Korean Cell Line Bank), HeLa (cervix/human, Korean Cell Line Bank), and HT-29 (Colon/human, Korean Cell Line Bank) was respectively dispersed in 2 mL of cell culture solution [DMEM (WELGENE) culture solution was used for the HeLa cell, and RPMI1640 (WELGENE) culture solution was used for the other cells]. And then the solution was put into a dish for cell culture (35 mm, glass-bottomed dish), and cultured in a culture chamber (5% CO2, 37° C.). After 24 hours, the dish was washed with 2 mL of DPBS (WELGENE), and 1.8 mL of the culture solution and 0.2 mL of the nanoparticles were added thereto, and the resulting dish was stored in a culture chamber (5% CO2, 37° C.) for 1 hour. The stored cell culture dish was washed with 2 mL of DPBS, cells were fixed with 1 mL of a cell fixation solution, and then fluorescence images were observed by fluorescence microscope (LEICA DMI3000B equipped with a Nuance FX multispectral imaging system, CRI). […]

[2] = tested on: cancer cells (MDA-MB-231, MCF-7, PC-3, HeLa, HT-29) and normal cells (MRC-5, Clone-1-5c-4, NIH3T3); experiment: Cytotoxicity (Dark) by MTT analysis; assay type: cell-based, human; mouse (NIH/3T3); conditions: 1 hour incubation, no laser
Protocol: In order to confirm of the cytotoxicity of MB NPs, 200 μL of a cell culture solution in which 1×10^4 ea of cells were dispersed was put into a dish for cell culture (96-well plate) and cultured (5% CO2, 37° C.) in an artificial culture chamber for 24 hours, and the dish was washed with DPBS, and then a mixture solution of 20 μL of MB NPs and 180 μL of a cell culture solution was added to the cell, and the resulting culture solution was cultured in the same artificial culture chamber for 1 hour. After the dish was washed with DPBS, the number of each cell was observed by the MTT analysis method.
The experiment was performed on cancer cells and normal cells, and MDA-MB-231 cell, MCF-7 cell, PC-3 cell, HeLa cell, and HT-29 cell are illustrated in FIGS. 7a, 7b, 7c, 7d, and 7e, respectively, and normal cells MRC-5, Clone-1-5c-4, and NIH3T3 are illustrated in FIGS. 8a to 8c, respectively.

## CN(C)c1ccc2nc3ccc(=[N+](C)C)cc-3sc2c1 [MB Sol., methylene blue]
[1]
  infiltration capacity into cell: not found in the cell
[2]
  cytotoxicity of the material (Dark): no cytotoxicity of the material itself
